Earlier results as cited in US20020066702A1, “Antibacterial and antibiofilm bonded permanent magnets” (priority 2000, published 2002).

Legend:
human fibroblast = settings: 24 hours after a 15 minute exposure to 1% povidone-iodine, 3% hydrogen peroxide or 0.5% sodium hypochlorite
[1] = tested on: full thickness dermal wounds on the backs of rats; settings: eight days after initial irrigation with 1% povidone-iodine or 0.5% sodium hypochlorite

| Molecule | fibroblast survival (human fibroblast) | re-epithelialization [1] |
| --- | --- | --- |
| OO [hydrogen peroxide] | no fibroblasts survived | – |
| OCl [sodium hypochlorite] | no fibroblasts survived | substantially and statistically significantly inhibited |
| polyvinylpyrrolidone-iodine complex [povidone-iodine] | no fibroblasts survived | substantially and statistically significantly inhibited |
